Read-outs that look alike come from different tables or passages of the source.
Key:
human AChE [1] = biological target: T1, human AChE (Homo sapiens, UniProt P22303); experiment: biochemical; conditions: for inhibition at 10 µM: read-out: % Inhibition at 10 µM; for IC50: mean ± SEM
T1 construct: purchased Sigma-Aldrich
Procedure: AChE and BChE inhibition studies were performed in 96 well plates by the method of Ellman, et al.. […] The mixture was preincubated for 20 min at 37 °C before addition of 50 μL (0.120 mM) of the substrate, acetylthiocholine (ATC) iodide or butyrylthiocholine (BTC) iodide (depending on the enzyme). […] Each assay was performed in triplicate. […] The percentage of inhibition was calculated using the expression: (E–S)/E × 100 where E is the activity of the enzyme without test compound and S is the activity of the enzyme with test compound.
(§1) IC50 values were obtained from concentration-inhibition experiments by nonlinear regression analysis using PRISM® v5.0 (GraphPad Inc., San Diego, CA, USA).

equine BChE = biological target: T2, equine BChE (Equus caballus, UniProt P81908); experiment: Equine BChE inhibition, Ellman's method; format: biochemical; conditions: for Selectivity for AChE: IC50 (BChE)/IC50 (AChE); for IC50: equine BChE, mean ± SEM
T2 construct: purchased Sigma-Aldrich
Procedure: The IC50 values of the four compounds that gave the greatest inhibition of AChE were also determined for equine BChE, which is readily available and is considered a good model for human BChE [23], as the equine form has 90% sequence identity compared to the human form. […].
AChE and BChE inhibition studies were performed in 96 well plates by the method of Ellman, et al.. 110 μL of sodium phosphate buffer (pH 8.0) was added to each well followed by 20 μL of test compound, 50 μL of 5,5′-dithiobis-(2-nitrobenzoic acid) (DTNB) (0.126 mM) and 20 μL of AChE or BChE (0.15 units/mL). The mixture was preincubated for 20 min at 37 °C before addition of 50 μL (0.120 mM) of the substrate, acetylthiocholine (ATC) iodide or butyrylthiocholine (BTC) iodide (depending on the enzyme). The hydrolysis of ATC or BTC was monitored using an Infinite® M200 PRO multimode reader (Tecan Group Ltd., Männedorf, Switzerland) by measuring the absorbance due to yellow 5-thio-2-nitrobenzoate anion at 412 nm every 30 s for 25 min. Each assay was performed in triplicate. […] The percentage of inhibition was calculated using the expression: (E–S)/E × 100 where E is the activity of the enzyme without test compound and S is the activity of the enzyme with test compound.
as §1

human AChE [2] = biological target: T1, human AChE; experiment: Kinetic characterisation of AChE inhibition (Lineweaver-Burk, nonlinear regression mixed-model); format: biochemical; conditions: substrate acetylthiocholine 0.1-1.0 mM, read-out: Apparent Ki, human AChE
Procedure: […]. The mode of inhibition was investigated using Lineweaver–Burk plots of 1/initial reaction rate (1/V) against 1/substrate concentration (1/[S]). Apparent inhibition constant (Ki and Ki′) values were determined using the nonlinear regression mixed-model inhibition method in PRISM® v5.0 (GraphPad Inc.).

[3] = human recombinant AChE, 10 µM, mean of triplicate, na = no activity observed at 10 µM

T1 sequence (P22303 32-614): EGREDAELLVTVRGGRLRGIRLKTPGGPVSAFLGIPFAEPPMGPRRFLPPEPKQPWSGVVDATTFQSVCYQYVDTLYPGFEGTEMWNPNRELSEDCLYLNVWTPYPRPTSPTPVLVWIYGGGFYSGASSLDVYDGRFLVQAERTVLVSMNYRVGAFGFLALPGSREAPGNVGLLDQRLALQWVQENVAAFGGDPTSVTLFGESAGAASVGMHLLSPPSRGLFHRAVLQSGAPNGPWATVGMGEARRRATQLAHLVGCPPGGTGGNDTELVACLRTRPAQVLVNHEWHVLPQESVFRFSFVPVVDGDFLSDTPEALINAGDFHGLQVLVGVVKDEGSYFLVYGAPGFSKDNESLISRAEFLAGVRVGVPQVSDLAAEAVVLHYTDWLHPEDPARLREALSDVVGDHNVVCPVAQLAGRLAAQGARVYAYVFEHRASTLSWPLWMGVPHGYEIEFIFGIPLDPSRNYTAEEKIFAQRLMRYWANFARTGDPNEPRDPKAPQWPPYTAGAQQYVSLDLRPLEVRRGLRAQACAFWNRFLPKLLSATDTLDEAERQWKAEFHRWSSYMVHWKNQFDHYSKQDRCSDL
T2 sequence (P81908 whole entry): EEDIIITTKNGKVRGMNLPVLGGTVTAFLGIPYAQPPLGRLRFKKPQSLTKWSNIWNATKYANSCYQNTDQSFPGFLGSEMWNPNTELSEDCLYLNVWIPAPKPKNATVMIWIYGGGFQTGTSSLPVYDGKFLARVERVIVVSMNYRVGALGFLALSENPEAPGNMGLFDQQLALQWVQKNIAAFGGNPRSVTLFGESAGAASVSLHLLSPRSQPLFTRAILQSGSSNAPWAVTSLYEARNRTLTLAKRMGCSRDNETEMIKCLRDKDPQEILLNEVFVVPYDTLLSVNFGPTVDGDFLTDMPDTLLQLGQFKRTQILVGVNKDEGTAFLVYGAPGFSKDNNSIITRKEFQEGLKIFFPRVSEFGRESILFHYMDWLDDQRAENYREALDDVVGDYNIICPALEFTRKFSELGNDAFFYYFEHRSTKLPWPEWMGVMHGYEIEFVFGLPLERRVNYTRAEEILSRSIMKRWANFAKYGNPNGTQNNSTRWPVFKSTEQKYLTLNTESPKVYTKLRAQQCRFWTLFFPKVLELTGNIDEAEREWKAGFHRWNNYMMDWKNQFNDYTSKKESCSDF

## O=C(/C=C/c1ccccc1)c1ccccc1O [Compound 1, 2′-Hydroxychalcone]
Human AChE [1]
  inhibition at 10 µM: 11%

## CN(C)c1ccc(/C=C/C(=O)c2ccccc2O)cc1 [Compound 5, 2′-Hydroxy-4-(dimethylamino)chalcone]
Human AChE [1]; [3]
  inhibition at 10 µM: 28%
Human AChE [1]; human recombinant AChE
  IC50: 266 ± 48 µM

## COc1ccc(/C=C/C(=O)c2ccccc2O)cc1 [Compound 6, 2′-Hydroxy-4-methoxychalcone]
Human AChE [1]
  inhibition at 10 µM: 6%

## O=C(/C=C/c1ccccc1Br)c1ccccc1O [Compound 7, 2-Bromo-2′-hydroxychalcone]
Human AChE [1]; [3]
  inhibition at 10 µM: 38%
Human AChE [1]; human recombinant AChE
  IC50: 55 ± 12 µM
Equine BChE
  Selectivity for AChE: 2.0
  IC50: 108 ± 18 µM
Human AChE [2]
  Ki: 40 µM

## COc1cc(O)c(C(=O)/C=C/c2ccc(C)cc2)c(OC)c1 [Compound 9, 2′-Hydroxy-4′,6′-dimethoxy-4-methylchalcone]
Human AChE [1]; [3]
  inhibition at 10 µM: 23%
Human AChE [1]; human recombinant AChE
  IC50: 354 ± 33 µM

## COc1cc(O)c(C(=O)/C=C/c2ccc(Br)cc2)c(OC)c1 [Compound 10, 4-Bromo-2′-hydroxy-4′,6′-dimethoxychalcone]
Human AChE [1]; [3]
  inhibition at 10 µM: 30%
Human AChE [1]; human recombinant AChE
  IC50: 41 ± 13 µM
Equine BChE
  Selectivity for AChE: 1.4
  IC50: 59 ± 12 µM
Human AChE [2]
  Ki: 31 µM

## COc1cc(O)c(C(=O)/C=C/c2ccc(N(C)C)cc2)c(OC)c1 [Compound 11, 2′-Hydroxy-4′,6′-dimethoxy-4-(dimethylamino)chalcone]
Human AChE [1]; [3]
  inhibition at 10 µM: 5%

## COc1ccc(/C=C/C(=O)c2c(O)cc(OC)cc2OC)cc1 [Compound 12, 2′-Hydroxy-4,4′,6′-trimethoxychalcone]
Human AChE [1]; [3]
  inhibition at 10 µM: 7%

## COc1cc(O)c(C(=O)/C=C/c2ccccc2Br)c(OC)c1 [Compound 13, 2-Bromo-2′-hydroxy-4′,6′-dimethoxychalcone]
Human AChE [1]; [3]
  inhibition at 10 µM: 23%
Human AChE [1]; human recombinant AChE
  IC50: 85 ± 16 µM
Equine BChE
  IC50: 71 ± 14 µM
Human AChE [2]
  Ki: 113 µM

## COc1cc(O)c(C(=O)/C=C/c2cc(Cl)cc(Cl)c2O)c(OC)c1 [Compound 14, 3,5-Dichloro-2,2′-dihydroxy-4′,6′-dimethoxychalcone]
Human AChE [1]; [3]
  inhibition at 10 µM: 51%
Human AChE [1]; human recombinant AChE
  IC50: 73 ± 22 µM
Equine BChE
  Selectivity for AChE: 1.1
  IC50: 81 ± 18 µM
Human AChE [2]
  Ki: 56 µM
